Tests used:
[1] = system: lung damage model induced by cobra venom factor (CVF); bleeding; test: Anti-inflammatory action to lung damage model induced by CVF: index of bleeding (hemoglobin absorbance, 541 nm, in lung homogenate supernatant); format: in vivo, Lewis rats; details: Rattus norvegicus, iv, 0.5 h, read-out: Inhibition rate (%), index of bleeding
Experimental: (§1) Anti-inflammatory action to lung damage model induced by CVF Compounds obtained by Examples and an exemplary known compound (sulfatide) were selected as Test Compounds to check an inflammatory action thereof to a lung damage model induced by cobra venom factor (CVF), in accordance with the method described by M. S. Mulligan et al ["J. IMMUNOL.", Vol.151, page 6410 (1993); and "INT. IMMUNOL.", Vol. 7, page 1107 (1995)].
(§2) Namely, the test compound was intravenously injected by an amount of 0.2 mg/rat to test animals (Lewis rats, age of 8 weeks, 5 animals in each group). After lapsed 5 minutes from administration, CVF (20U/2 ml/kg) was administered in a tail vein, and after 30 minutes, a laparotomy was carried out under nembutal anesthesia to perfuse the lung with phosphate-buffered saline (PBS, pH7.4) by injecting the same from right ventricle and to exenterate the lung. The extracted lung was homogenized with phosphate buffer (pH 7.4), centrifuged to collect a supernatant, and determined absorbance which was admitted as index of bleeding (It measures an amount of hemoglobin and thus detection wave-length was set to 541 nm).
(§3) Each inhibition rate (%) was calculated by
(§4) 100×[1-(value of test compound-value of negative control)/(value of positive control-value of negative control)].

[2] = system: lung damage model induced by cobra venom factor (CVF); infiltration in neutrocyte (myeloperoxidase); test: Anti-inflammatory action to lung damage model induced by CVF: myeloperoxidase activity as index of infiltration in neutrocyte; format: in vivo, Lewis rats; details: Rattus norvegicus, iv, 0.5 h, read-out: Inhibition rate (%), myeloperoxidase activity as index of infiltration in neutrocyte
Experimental: as §1, §2
On the other hand, the precipitation obtained by centrifugation was sonicated in the presence of cetrimide and centrifuged to obtain a supernatant, an activity myeloperoxidase therein being measured as an index of infiltration in neutrocyte.
as §3, §4

In the case of `CCCCCCCCCCCCCCC(CCCCCCCCCCCCCC)CO[C@@H]1O[C@H](CO)[C@@H](O[C@@H]2O[C@H](CO)[C@H](OP(=O)(O)O)[C@H](OP(=O)(O)O)[C@H]2O)[C@H](O)[C@H]1O` [Example 22, Tetrasodium 2-tetradecylhexadecyl O-β-D-galactopyranosyl-(1→4)-β-D-glucopyranoside 3',4'-diphosphate], the inhibition in vivo at 0.2 mg [1] is reported as 65% and the inhibition in vivo at 0.2 mg [2] is reported as 58%.

In the case of `CCCC(CCC)CO[C@@H]1O[C@H](CO)[C@H](O)[C@H](OS(=O)(=O)O)[C@H]1O[C@@H]1O[C@@H](C)[C@@H](O)[C@@H](O)[C@@H]1O` [Example 23-1, Sodium 2-propylpentyl O-α-L-fucopyranosyl-(1→2)-β-D-galactopyranoside 3-sulfate], the inhibition in vivo at 0.2 mg [1] is reported as 53% and the inhibition in vivo at 0.2 mg [2] is reported as 51%.

`CCCC(CCC)CO[C@@H]1O[C@H](CO)[C@H](O)[C@H](OP(=O)(O)O)[C@H]1O[C@@H]1O[C@@H](C)[C@@H](O)[C@@H](O)[C@@H]1O` [Example 23-2, disodium 2-propylpentyl O-α-L-fucopyranosyl-(1→2)-β-D-galactopyranoside 3-phosphate] was tested, and the inhibition in vivo at 0.2 mg [1] was 51% and the inhibition in vivo at 0.2 mg [2] was 49%.

`CCCC(CCC)CO[C@@H]1O[C@H](CO)[C@H](O)[C@H](OS(=O)(=O)O)[C@H]1O[C@@H]1O[C@@H](C)[C@@H](O)[C@@H](OS(=O)(=O)O)[C@@H]1O` [Example 24-1, Disodium 2-propylpentyl O-α-L-fucopyranosyl-(1→2)-β-D-galactopyranoside 3,3'-disulfate] showed an inhibition in vivo at 0.2 mg [1] of 54% and an inhibition in vivo at 0.2 mg [2] of 47%.

With `CCCC(CCC)CO[C@@H]1O[C@H](CO)[C@H](O)[C@H](OP(=O)(O)O)[C@H]1O[C@@H]1O[C@@H](C)[C@@H](O)[C@@H](OP(=O)(O)O)[C@@H]1O` [Example 24-2, tetrasodium 2-propylpentyl O-α-L-fucopyranosyl-(1→2)-β-D-galactopyranoside 3,3'-diphosphate] the inhibition in vivo at 0.2 mg [1] was 50% and the inhibition in vivo at 0.2 mg [2] was 49%.

Work on `CCCC(CCC)CO[C@@H]1O[C@H](COS(=O)(=O)O)[C@H](O)[C@H](OS(=O)(=O)O)[C@H]1O[C@@H]1O[C@@H](C)[C@@H](O)[C@@H](O)[C@@H]1O` [Example 25, Disodium 2-propylpentyl O-α-L-fucopyranosyl-(1→2)-β-D-galactonyranoside 3,6-disulfate] yielded an inhibition in vivo at 0.2 mg [1] of 56% and an inhibition in vivo at 0.2 mg [2] of 50%.

For `CCCC(CCC)CO[C@@H]1O[C@H](COS(=O)(=O)O)[C@H](O)[C@H](OS(=O)(=O)O)[C@H]1O[C@@H]1O[C@@H](C)[C@@H](O)[C@@H](OS(=O)(=O)O)[C@@H]1O` [Example 26, Trisodium 2-propylpentyl O-α-L-fucopyranosyl-(1→2)-β-D-galactopyranoside 3,3',6-trisulfate], the inhibition in vivo at 0.2 mg [1] was 56% and the inhibition in vivo at 0.2 mg [2] was 50%.

For `CCCCCCCCCCCCCCC(CCCCCCCCCCCCCC)CO[C@@H]1O[C@H](CO)[C@H](O)[C@H](OS(=O)(=O)O)[C@H]1O[C@@H]1O[C@@H](C)[C@@H](O)[C@@H](O)[C@@H]1O` [Example 27-1, Sodium 2-tetradecylhexadecyl O-α-L-fucopyranosyl-(1→2)-β-D-galactopyranoside 3-sulfate], the inhibition in vivo at 0.2 mg [1] was 65% and the inhibition in vivo at 0.2 mg [2] was 61%.

With `CCCCCCCCCCCCCCC(CCCCCCCCCCCCCC)CO[C@@H]1O[C@H](CO)[C@H](O)[C@H](OP(=O)(O)O)[C@H]1O[C@@H]1O[C@@H](C)[C@@H](O)[C@@H](O)[C@@H]1O` [Example 27-2, disodium 2-tetradecylhexadecyl O-α-L-fucopyranosyl-(1→2)-β-D-galactopyranoside 3-phosphate] the inhibition in vivo at 0.2 mg [1] was 62% and the inhibition in vivo at 0.2 mg [2] was 58%.

`CCCCCCCCCCCCCCC(CCCCCCCCCCCCCC)CO[C@@H]1O[C@H](CO)[C@H](O)[C@H](OS(=O)(=O)O)[C@H]1O[C@@H]1O[C@@H](C)[C@@H](O)[C@@H](OS(=O)(=O)O)[C@@H]1O` [Example 28-1, disodium 2-tetradecylhexadecyl O-α-L-fucopyranosyl-(1→2)-β-D-galactopyranoside 3,3'-disulfate] was tested, and the inhibition in vivo at 0.2 mg [1] was 63% and the inhibition in vivo at 0.2 mg [2] was 60%.

— patent US5869460A, “Sulfated and phosphated saccharide derivatives, process for the preparation of the same and use thereof” (Sanwa Kaguku Kenkyusho Co., Ltd., priority 1995, dated 1999)
